In patent US9938258B2 (Karyopharm Therapeutics Inc., priority 2012, dated 2018):
Counter-ions that a name gives are not always drawn. Like-named read-outs stand apart in the source and are kept apart here.

Key:
[1] = tested on: MS751 cells; assay: MTT cell proliferation assay, MS751; assay type: cell-based, human; conditions: Homo sapiens, MS751, MS751 cells, read-out: MTT Assay IC50, MS751
Method in brief: (§1)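 Seeding 5,000-10,000 cells/well, overnight attachment; 8 concs, 1 nM–30 μM. MTT ~4 h, formazan solubilized, OD 490 nm. % inhibition vs negative control, mostly duplicate, mean±SE.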

[2] = tested on: Z138 cells; assay: MTT cell proliferation assay, Z138; assay type: cell-based; conditions: Homo sapiens, Z-138, Z138 cells, read-out: MTT Assay IC50, Z138
Method in brief: as §1

[3] = tested on: 3T3 cells; assay: MTT cell proliferation assay, 3T3; assay type: cell-based, mouse; conditions: Mus musculus, NIH3T3, 3T3 cells, read-out: MTT Assay IC50, 3T3
Method in brief: as §1

[4] = tested on: Z-138 mantle cell lymphoma cancer xenograft; assay: Z-138 mouse xenograft model; assay type: in vivo; conditions: QDx5/week for 4 weeks, SCID mice with Z-138 tumors; for tumor growth (mean tumor volume): versus cyclophosphamide 80 mg/kg Days 1-3
Protocol: The oncological impact of selected substituted 2,3-dihydrobenzofuranyl compounds was tested using a Z-138 mantle cell lymphoma cancer xenograft model in SCID mice. SCID Mice were inoculated s.c. in both flanks with 5×10^6 Z-138 cells. When the tumors reached a mean size of between 100 and 200 mm^3, mice were randomly and prospectively divided. Tumor-bearing mice were treated with vehicle, cyclophosphamide (positive control) or Compound 123 on M-F (QDx5/week) for 4 weeks. Compound 123 was administered orally (PO) at initial doses of 30 and 100 mg/kg five times a week. Cyclophosphamide was given as a positive control at 80 mg/kg on Days 1-3. Animals' weights and conditions were recorded daily, and tumors were measured on Mondays-Wednesdays-Fridays.

[5] = tested on: Z-138 cells; assay: Cell cycle arrest (BrdU / 7-AAD flow cytometry); assay type: cell-based; conditions: 1 μM for 1, 2 and 3 days
Protocol: Z-138 cells (mantle cell lymphoma) were plated at a density of 1×10^6 cells/well and treated with no drug (DMSO control) or with 1 μM Compound 123 for 1, 2, and 3 days in culture. For each time point, cells were treated with 10 μM BrdU for 2 hours, then collected by centrifugation. Cells were subsequently washed, fixed, and then stained for BrdU and total DNA (7-AAD). BrdU incorporation and cell cycle analysis were analyzed by flow cytometry at the Dana Farber Cancer Institute on a BD Fortessa Analyzer. Data was then analyzed using FCS Express 4 software.
FIGS. 1A, 1B, 1C and 1D are single-cell scatter plots and show BrdU versus 7-AAD for Z138 cells treated with no drug (FIG. 1A) or treated with 1 μM Compound 123 for 1 day (FIG. 1B), 2 days (FIG. 1C), or 3 days (FIG. 1D). Graphs showing cell count versus 7-AAD intensities are depicted below their corresponding scatter plots.

[6] = tested on: PAK4 interactors and downstream proteins; assay: Immunoblots of PAK4 interactors and downstream proteins in U2OS cells; assay type: cell-based, human; conditions: 0.5 μM or 5 μM, 72 hours
Protocol: Immunoblots were used to measure the effects of exemplary compounds on protein steady-state levels and phophorylation of PAK4 interactor and downstream proteins. Specifically, U2OS (osteosarcoma) cells were split and plated on day 1. After overnight attachment to the tissue culture plate, cells were treated with either DMSO (0), 37 nM, 111 nM, 333 nM, 1 μM, or 3 μM Compound 246 for 72 hours. Cells were collected, washed and lysed in RIPA buffer. After obtaining the protein concentration by BCA assay, lysates were boiled in loading buffer and run on SDS-PAGE. The gels were transferred to nitrocellulose membranes and blotted with antibodies raised against phosphor-PAK4, PAK4, phophos-beta-catenin, beta-catenin, GEF-H1, phospho-Akt, Akt, phospho-ERK1/2, ERK1/2, phospho-cofilin, cofilin, phospho-histone H3, histone H3, cyclin D1, Mcl-1, Bcl-2, p21, survivin, caspase 8, caspase 3, PARP, and beta-actin (loading control).
In another experiment, U2OS (osteosarcoma) cells were split and plated on day 1. After overnight attachment to the tissue culture plate, cells were treated with DMSO (Ct), 0.5 μM, or 5 μM of Compound 124, 369, 226, 246, or 907 for 72 hours. Cells were collected, washed and lysed in RIPA buffer. After obtaining the protein concentration by BCA assay, lysates were boiled in loading buffer and run on SDS-PAGE. The gels were transferred to nitrocellulose membranes and blotted with antibodies raised against phophos-beta-catenin, cyclin D1, PAK4, phospho-cofilin, and beta-actin (loading control).

[7] = eight concentrations 1 nM to 30 μM, incubation approximately 64-72 hours
[8] = approximately 64-72 hours incubation

Row | Structure (SMILES) | IC50 [1, 7] | IC50 [2, 7] | IC50 [3, 7] | tumor growth (mean tumor volume) ([4]; 30 mg/kg PO) | tumor growth (mean tumor volume) ([4]; 100 mg/kg PO) | tolerability (mean percent weight change) ([4]; 30 and 100 mg/kg PO) | G1 [5] | G2/M [5] | S phase [5] | sub-G1 fraction [5] | IC50 [1, 8] | IC50 [2, 8] | IC50 [3, 8] | PAK4 total protein [6] | phosphorylation of PAK4 signaling proteins beta-catenin and cofilin [6]
1 | CC(=O)c1ccc(-c2cc(Cl)c3c(c2)CC(CNC(=O)/C=C/c2cccnc2)O3)s1 (single isomer, unassigned) [Compound 123, (E)-N-((5-(5-acetylthiophen-2-yl)-7-chloro-2,3-dihydrobenzofuran-2-yl)methyl)-3-(pyridin-3-yl)acrylamide] | < 100 nM | < 100 nM | 100 to 5000 nM | inhibited tumor growth with an efficacy better than that of cyclophosphamide | inhibited tumor growth with an efficacy similar to cyclophosphamide | tolerated at both doses | no change | increased | significant decrease | small increase | – | – | – | – | –
2 | CC(=O)c1ccc(-c2cc(Cl)c3c(c2)CC(CNC(=O)CCc2cccnc2)O3)s1 (centres unmarked) [Compound 369, N-((5-(5-Acetylthiophen-2-yl)-7-chloro-2,3-dihydrobenzofuran-2-yl)methyl)-3-(pyridin-3-yl)propanamide] | – | – | – | – | – | – | – | – | – | – | 100 to 5000 nM | 100 to 5000 nM | 5000 to 30000 nM | decrease | decreases in phosphorylation
3 | Nc1ccc(CNC(=O)/C=C/C2Cc3cc(-c4ccc(C(=O)N5CCOCC5)cc4)cc(Cl)c3O2)cn1 (centres unmarked) [Compound 907, (E)-N-((6-aminopyridin-3-yl)methyl)-3-(7-chloro-5-(4-(morpholine-4-carbonyl)phenyl)-2,3-dihydrobenzofuran-2-yl)acrylamide hydrochloride] | – | – | – | – | – | – | – | – | – | – | < 100 nM | < 100 nM | 5000 to 30000 nM | decrease | decreases in phosphorylation
4 | Nc1ccc(/C=C/C(=O)NCC2Cc3cc(-c4ccc(CC(=O)N5CCOCC5)cc4)cc(Cl)c3O2)cn1 (centres unmarked) [Compound 921, (E)-3-(6-aminopyridin-3-yl)-N-((7-chloro-5-(4-(2-morpholino-2-oxoethyl)phenyl)-2,3-dihydrobenzofuran-2-yl)methyl)acrylamide] | – | – | – | – | – | – | – | – | – | – | < 100 nM | < 100 nM | 100 to 5000 nM | – | –
